Consider three molecules from ChEMBL document CHEMBL5649166, “RIP3 induces apoptosis independent of pronecrotic kinase activity” (Mol Cell, 2014).

Each structure is given as a SMILES string.

In test [1] the target is T1, Activin receptor type-1B (Homo sapiens) (UniProt P36896).
T1 sequence (whole entry): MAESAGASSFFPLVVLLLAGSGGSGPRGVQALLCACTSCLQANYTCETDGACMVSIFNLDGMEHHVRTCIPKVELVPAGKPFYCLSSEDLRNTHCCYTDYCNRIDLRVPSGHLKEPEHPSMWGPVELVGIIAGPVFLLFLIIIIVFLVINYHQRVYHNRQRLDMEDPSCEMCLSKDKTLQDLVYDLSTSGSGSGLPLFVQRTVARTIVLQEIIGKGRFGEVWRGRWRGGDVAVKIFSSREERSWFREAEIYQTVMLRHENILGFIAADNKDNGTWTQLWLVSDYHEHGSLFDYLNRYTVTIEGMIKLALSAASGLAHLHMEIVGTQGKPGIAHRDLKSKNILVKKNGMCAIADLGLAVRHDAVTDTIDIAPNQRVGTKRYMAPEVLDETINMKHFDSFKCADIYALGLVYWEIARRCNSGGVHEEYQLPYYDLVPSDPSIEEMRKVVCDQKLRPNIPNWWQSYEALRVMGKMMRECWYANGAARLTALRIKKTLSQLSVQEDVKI
The test can be described thus: Residual activity of human ALK4/ACVR1B using casein as substrate at 1 uM in presence of 32P-ATP by Hotspot assay relative to control.

Test [2] has as its target Calcium/calmodulin-dependent protein kinase type II subunit beta (Homo sapiens) (UniProt Q13554). The test can be described thus: Residual activity of human CAMK2b using KKALRRQETVDAL as substrate at 1 uM in presence of 32P-ATP by Hotspot assay relative to control.
For test [3], the target named is Dual specificity protein kinase CLK3 (Homo sapiens) (UniProt P49761). The test can be described thus: Residual activity of human CLK3 using myelin basic protein as substrate at 1 uM in presence of 32P-ATP by Hotspot assay relative to control.
The target in test [4] is T2, Testis-specific serine/threonine-protein kinase 1 (Homo sapiens) (UniProt Q9BXA7).
T2 sequence (whole entry): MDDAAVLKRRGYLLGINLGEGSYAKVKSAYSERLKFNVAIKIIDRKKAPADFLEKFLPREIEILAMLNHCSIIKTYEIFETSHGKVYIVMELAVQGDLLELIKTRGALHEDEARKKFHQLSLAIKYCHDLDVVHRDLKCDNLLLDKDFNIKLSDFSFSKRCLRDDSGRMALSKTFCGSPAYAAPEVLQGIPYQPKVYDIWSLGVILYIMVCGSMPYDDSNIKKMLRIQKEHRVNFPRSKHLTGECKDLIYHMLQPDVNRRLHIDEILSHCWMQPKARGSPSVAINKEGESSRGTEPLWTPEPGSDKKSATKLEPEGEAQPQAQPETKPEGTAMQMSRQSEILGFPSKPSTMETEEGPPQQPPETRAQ
The test can be described thus: Residual activity of human STK22D/TSSK1 using KKKVSRSGLYRSPSMPENLNRPR as substrate at 1 uM in presence of 32P-ATP by Hotspot assay relative to control.

In test [5] the target is T3, cAMP-dependent protein kinase catalytic subunit PRKX (Homo sapiens) (UniProt P51817).
T3 sequence (whole entry): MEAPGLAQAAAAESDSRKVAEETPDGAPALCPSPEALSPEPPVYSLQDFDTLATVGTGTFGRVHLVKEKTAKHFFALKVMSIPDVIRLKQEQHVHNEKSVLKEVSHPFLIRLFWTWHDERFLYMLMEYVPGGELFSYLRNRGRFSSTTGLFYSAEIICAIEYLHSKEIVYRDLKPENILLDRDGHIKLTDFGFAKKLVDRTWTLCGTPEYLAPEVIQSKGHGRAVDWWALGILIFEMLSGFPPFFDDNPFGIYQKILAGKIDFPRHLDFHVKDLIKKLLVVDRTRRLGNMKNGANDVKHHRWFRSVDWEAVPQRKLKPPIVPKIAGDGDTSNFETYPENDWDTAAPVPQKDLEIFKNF
The test can be described thus: Inhibition of human PRKX using LRRASLG as substrate at 1 uM in presence of 32P-ATP by Hotspot assay relative to control; values are per cent of control.

Test [6] addresses Mitogen-activated protein kinase kinase kinase 8 (Homo sapiens) (UniProt P41279). The test can be described thus: Inhibition of human COT1/MAP3K8 using MEK1 (K97R) as substrate at 1 uM in presence of 32P-ATP by Hotspot assay relative to control; values are per cent of control.
Test [7] has as its target T4, MAP kinase-activated protein kinase 5 (Homo sapiens) (UniProt Q8IW41).
T4 sequence (whole entry): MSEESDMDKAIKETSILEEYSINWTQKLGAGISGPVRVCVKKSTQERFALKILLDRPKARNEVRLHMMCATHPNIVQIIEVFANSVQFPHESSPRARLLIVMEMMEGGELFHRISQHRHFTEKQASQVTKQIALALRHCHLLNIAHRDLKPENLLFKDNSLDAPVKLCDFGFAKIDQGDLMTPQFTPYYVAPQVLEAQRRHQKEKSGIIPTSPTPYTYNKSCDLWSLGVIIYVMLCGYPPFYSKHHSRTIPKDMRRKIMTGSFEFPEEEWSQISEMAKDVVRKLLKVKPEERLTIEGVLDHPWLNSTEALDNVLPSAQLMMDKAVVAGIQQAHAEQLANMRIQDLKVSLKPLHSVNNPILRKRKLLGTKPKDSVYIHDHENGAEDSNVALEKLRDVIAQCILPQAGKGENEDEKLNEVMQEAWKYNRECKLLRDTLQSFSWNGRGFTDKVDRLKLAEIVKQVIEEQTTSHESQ
In words: Inhibition of human MAPKAPK5/PRAK using KKLNRTLSVA as substrate at 1 uM in presence of 32P-ATP by Hotspot assay relative to control; values are per cent of control.

The target of test [8] is CDK6/cyclin D1 (Homo sapiens) (UniProt P24385+Q00534). The test can be described thus: Inhibition of human CDK6/cyclin D1 using RB Protein as substrate at 1 uM in presence of 32P-ATP by Hotspot assay relative to control; values are per cent of control.
Test [9] has as its target Serine/threonine-protein kinase WNK2 (Homo sapiens) (UniProt Q9Y3S1). The test can be described thus: Inhibition of human WNK2 using myelin basic protein as substrate at 1 uM in presence of 32P-ATP by Hotspot assay relative to control; values are per cent of control.
The target of test [10] is Glycogen synthase kinase-3 alpha (Homo sapiens) (UniProt P49840). The test can be described thus: Inhibition of human GSK3a using YRRAAVPPSPSLSRHSSPHQ(pS)EDEEE as substrate at 1 uM in presence of 32P-ATP by Hotspot assay relative to control; values are per cent of control.
Sequence of Glycogen synthase kinase-3 alpha (Homo sapiens) (P49840 2-483 limits assumed): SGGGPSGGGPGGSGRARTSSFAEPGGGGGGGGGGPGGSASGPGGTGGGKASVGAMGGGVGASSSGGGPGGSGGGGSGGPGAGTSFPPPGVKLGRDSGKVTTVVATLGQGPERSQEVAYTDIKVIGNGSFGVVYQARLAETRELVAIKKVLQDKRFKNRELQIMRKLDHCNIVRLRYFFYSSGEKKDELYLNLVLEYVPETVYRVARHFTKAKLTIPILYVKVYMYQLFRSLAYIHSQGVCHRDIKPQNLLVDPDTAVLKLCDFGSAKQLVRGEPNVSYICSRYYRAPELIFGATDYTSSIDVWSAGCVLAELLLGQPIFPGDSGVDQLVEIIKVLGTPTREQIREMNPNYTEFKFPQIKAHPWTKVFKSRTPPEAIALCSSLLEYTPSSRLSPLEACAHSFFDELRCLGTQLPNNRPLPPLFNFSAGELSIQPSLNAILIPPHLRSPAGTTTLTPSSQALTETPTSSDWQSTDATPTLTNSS

Sequence of Mitogen-activated protein kinase kinase kinase 8 (Homo sapiens) (P41279 whole entry): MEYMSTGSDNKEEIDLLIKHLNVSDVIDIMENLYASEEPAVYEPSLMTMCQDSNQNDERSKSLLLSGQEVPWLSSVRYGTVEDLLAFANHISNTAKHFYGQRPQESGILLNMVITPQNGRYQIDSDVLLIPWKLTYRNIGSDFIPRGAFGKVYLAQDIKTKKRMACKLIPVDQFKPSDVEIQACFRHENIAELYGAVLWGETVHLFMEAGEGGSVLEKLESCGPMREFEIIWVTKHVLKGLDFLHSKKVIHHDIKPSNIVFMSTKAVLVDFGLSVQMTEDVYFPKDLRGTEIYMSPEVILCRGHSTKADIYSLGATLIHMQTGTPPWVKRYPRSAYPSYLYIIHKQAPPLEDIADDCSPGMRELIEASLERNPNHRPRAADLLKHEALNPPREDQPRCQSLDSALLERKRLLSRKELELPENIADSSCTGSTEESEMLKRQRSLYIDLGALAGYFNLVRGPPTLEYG
Sequence of Dual specificity protein kinase CLK3 (Homo sapiens) (P49761 whole entry, looked up): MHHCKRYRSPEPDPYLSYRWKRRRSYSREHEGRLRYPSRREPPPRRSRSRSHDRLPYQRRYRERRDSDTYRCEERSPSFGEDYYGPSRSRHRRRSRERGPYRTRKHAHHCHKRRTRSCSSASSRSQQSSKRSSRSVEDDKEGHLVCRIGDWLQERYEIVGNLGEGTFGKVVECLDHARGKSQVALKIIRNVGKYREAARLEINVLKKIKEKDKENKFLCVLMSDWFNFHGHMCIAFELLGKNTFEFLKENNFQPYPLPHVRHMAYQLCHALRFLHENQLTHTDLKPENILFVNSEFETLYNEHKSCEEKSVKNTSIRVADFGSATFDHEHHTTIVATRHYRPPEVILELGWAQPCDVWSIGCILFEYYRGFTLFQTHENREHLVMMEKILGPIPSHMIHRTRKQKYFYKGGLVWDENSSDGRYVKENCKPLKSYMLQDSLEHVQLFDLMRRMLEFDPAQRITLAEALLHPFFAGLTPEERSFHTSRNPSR
Sequence of Serine/threonine-protein kinase WNK2 (Homo sapiens) (Q9Y3S1 whole entry): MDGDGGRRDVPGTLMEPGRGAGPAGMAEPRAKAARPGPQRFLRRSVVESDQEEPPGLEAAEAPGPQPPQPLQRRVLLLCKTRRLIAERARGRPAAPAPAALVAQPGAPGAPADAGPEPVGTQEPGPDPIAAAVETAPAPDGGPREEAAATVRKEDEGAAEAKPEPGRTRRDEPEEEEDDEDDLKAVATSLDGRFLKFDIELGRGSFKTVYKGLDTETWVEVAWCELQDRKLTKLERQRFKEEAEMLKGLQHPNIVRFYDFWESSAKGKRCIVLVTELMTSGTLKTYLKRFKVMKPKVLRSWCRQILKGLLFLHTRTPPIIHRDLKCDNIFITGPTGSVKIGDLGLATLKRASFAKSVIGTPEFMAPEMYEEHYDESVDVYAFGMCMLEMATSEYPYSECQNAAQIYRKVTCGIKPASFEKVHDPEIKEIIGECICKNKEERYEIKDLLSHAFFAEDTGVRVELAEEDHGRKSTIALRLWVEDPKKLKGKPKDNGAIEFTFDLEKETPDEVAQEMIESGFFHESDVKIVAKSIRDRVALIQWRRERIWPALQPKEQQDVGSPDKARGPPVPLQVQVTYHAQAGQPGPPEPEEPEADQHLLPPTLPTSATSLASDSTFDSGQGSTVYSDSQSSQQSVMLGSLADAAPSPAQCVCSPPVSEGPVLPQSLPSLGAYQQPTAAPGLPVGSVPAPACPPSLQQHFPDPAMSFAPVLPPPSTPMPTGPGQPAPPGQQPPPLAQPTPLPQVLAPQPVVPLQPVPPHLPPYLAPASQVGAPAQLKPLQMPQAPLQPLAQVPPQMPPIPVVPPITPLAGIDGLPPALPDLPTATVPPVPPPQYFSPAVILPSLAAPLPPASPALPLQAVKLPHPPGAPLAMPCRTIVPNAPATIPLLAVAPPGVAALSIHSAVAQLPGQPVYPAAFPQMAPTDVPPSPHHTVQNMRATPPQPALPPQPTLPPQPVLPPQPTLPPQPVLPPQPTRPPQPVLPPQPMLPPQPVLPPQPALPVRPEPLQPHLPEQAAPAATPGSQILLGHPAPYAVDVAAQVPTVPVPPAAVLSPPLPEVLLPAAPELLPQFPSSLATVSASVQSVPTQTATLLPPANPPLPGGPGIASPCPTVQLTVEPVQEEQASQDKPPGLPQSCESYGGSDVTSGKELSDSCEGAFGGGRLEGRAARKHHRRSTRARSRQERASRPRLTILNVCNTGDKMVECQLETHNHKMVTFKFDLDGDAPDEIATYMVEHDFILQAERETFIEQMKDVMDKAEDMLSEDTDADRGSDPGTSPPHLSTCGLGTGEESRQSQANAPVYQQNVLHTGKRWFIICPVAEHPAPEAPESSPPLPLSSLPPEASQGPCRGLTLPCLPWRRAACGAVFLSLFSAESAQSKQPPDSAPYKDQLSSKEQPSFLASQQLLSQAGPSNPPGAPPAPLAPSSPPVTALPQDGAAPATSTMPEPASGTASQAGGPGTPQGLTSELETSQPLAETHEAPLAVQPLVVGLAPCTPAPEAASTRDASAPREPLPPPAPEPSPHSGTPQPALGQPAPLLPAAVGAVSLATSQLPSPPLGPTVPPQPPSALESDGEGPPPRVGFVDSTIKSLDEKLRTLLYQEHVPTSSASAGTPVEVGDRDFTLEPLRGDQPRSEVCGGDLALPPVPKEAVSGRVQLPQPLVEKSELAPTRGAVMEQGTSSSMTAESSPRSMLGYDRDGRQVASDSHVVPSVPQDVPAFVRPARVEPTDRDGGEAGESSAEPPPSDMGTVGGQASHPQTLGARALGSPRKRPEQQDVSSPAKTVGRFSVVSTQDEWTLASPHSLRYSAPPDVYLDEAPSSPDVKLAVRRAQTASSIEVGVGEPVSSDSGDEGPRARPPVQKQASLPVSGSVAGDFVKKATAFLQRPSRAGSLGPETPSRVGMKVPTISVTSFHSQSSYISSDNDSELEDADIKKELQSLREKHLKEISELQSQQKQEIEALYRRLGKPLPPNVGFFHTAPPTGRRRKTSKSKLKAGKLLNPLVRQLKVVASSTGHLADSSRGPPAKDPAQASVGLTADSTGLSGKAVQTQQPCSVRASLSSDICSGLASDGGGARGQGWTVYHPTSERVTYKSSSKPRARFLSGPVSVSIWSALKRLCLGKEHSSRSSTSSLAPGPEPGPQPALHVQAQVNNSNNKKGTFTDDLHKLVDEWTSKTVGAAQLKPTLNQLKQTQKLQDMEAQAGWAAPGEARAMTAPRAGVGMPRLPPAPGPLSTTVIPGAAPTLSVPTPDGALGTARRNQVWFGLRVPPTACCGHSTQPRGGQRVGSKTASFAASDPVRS
Sequence of Calcium/calmodulin-dependent protein kinase type II subunit beta (Homo sapiens) (Q13554 whole entry): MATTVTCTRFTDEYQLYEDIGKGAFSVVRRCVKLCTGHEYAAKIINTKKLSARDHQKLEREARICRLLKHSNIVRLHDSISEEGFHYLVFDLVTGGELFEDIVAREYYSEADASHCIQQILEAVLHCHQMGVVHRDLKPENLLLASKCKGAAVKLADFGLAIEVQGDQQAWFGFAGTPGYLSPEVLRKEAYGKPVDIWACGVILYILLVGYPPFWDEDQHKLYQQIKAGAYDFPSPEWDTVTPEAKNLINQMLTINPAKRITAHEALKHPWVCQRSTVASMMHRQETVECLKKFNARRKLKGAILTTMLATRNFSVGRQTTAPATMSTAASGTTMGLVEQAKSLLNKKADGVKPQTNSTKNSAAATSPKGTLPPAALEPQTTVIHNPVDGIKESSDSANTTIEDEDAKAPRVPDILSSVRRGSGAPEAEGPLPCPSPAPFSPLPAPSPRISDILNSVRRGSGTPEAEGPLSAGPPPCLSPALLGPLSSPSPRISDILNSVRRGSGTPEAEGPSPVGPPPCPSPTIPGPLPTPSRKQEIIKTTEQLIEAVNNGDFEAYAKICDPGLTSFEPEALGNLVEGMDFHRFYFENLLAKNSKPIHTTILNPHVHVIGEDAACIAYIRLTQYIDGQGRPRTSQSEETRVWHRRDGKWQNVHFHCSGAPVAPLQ

In the case of `Cc1cc(-c2cnc(N)c3c(-c4ccc5scnc5c4)csc23)n(C)n1`, the residual activity worked out at 96.8% in test [1]; 100% in [2]; 98.3% in test [3]; 101% in test [4]; 94.2% in [5]; 106% in test [6]. For the same molecule, the residual activity in test [7] worked out at 90.5%; in test [8], 98.2%; in test [9], 98.9%; in [10], 99.8%.
Consider `CC(C)S(=O)(=O)c1ccc2nccc(Nc3ccc4scnc4c3)c2c1`, for which the residual activity was 100% in test [1]; 104% in test [2]; 99% in test [3]; 98.6% in [4]; 101% in test [5]; 85.2% in test [6]. The residual activity in test [7] amounted to 102%; in [8] it was 101%; in [9] it was 103%; in [10], 92.4%.
Take `CNC(=O)c1ccc2c(c1)ncn2-c1ccc(CC(=O)OC(C)(C)C)cc1`: the residual activity in [1] is 93.9%; in test [2], 98.3%; in test [3], 97.4%; in test [4], 89.2%; in [5] it was 93.6%; in [6] it was 108%. For the same molecule, the residual activity amounted to 103% in test [7], 96.6% in test [8], 97.9% in test [9] and 99.8% in test [10].
